From patent US8188050B2, “Pharmaceutical and/or cosmetic composition containing peptides” (ISP Investments Inc., priority 2006, dated 2012)
“Also recorded” adds a separate entry of the source.

System: Biopsies of human skin
Assay: Ex vivo study of the effect of the peptide on the synthesis of melanin (Fontana-Masson staining of skin biopsies)
Type: cell-based
Conditions: two applications daily, peptide 1% starting with a 50-ppm solution, 48 hours
Description: The aim of this ex vivo study is to highlight the increase in melanization produced by the peptides according to the invention.
Protocol: Biopsies of human skin 6 mm in diameter are held in an ex vivo culture in the presence of a specific medium (1 g/L DMEM, Ham's F-12, SVF, and antibiotics) on inserts deposited on 6-well plates. […] The duration of the treatment is 48 hours. The biopsies are subsequently fixed in 9% formaldehyde and NaCl (150 mM) for 10 hours and then enclosed in paraffin. Thin-sections of the skin 3 μm thick are then made, and the melanin is specifically stained by the Fontana-Masson technique.

Thr-Leu-Leu-Ala (TLLA) [SEQ ID No. 3, peptide fragment of the protein SLC24A5]
Location/distribution of melanin in the epidermis: located in the basal layer but is also transported into the supra-basal layers; also recorded: stimulates the entire process of melanin distribution in the epidermis
Synthesis of melanin by the melanocytes (conclusion): strong increase in the synthesis of melanin
Intensity of melanin coloration of skin thin-sections (Fontana-Masson staining) (vs. untreated sections): coloration of clearly increased intensity
